The text below walks through data of US20060257934A1 (priority 2005, published 2006).

For assay [1], the target named is T1, GABAA receptor (rat α1β2 γ2) (Rattus norvegicus, UniProt P18508+P62813+P63138).
T1 construct: expressed in transfected cells
As to the kind of experiment: cell-based.
Procedure: Doubly transfected cell lines were generated that express GABAA receptor (rat α1β2 γ2) together with a yellow fluorescent protein (YFP) Topaz-based halide sensor (46/148/152 mutant).
Doubly transfected cells were plated onto black-walled, clear-bottomed, poly-D-lysine-coated 384-well plates (Becton Dickinson Biosciences). Prior to the assay, the cell medium was removed and replaced with chloride-free plating medium (CFPM; see the composition below). After the incubation in CFPM for 3-4 hours at 37° C. in a 5% CO2 atmosphere, the medium was removed and replaced with chloride-free assay buffer (CFAB; see the composition below ), containing the final concentrations of test compounds. The cells were incubated for 15-20 minutes in the dark (to preserve fluorescence of the YFP) at room temperature (RT). Once the incubation was complete, the cell plates were transferred to the FLIPR (Molecular Devices Inc., Sunnyvale, Calif.) for the assay.
YFP was excited with 488 nm wavelength light and the fluorescence measured using a 540/60 nm bandpass emission filter. FLIPR settings were routinely adjusted so that the background fluorescence reading at the beginning of the assay was 20,000-50,000 counts/ms. After measuring a baseline readout of 10 seconds, the stimulus buffer was added to the well and signal was recorded for 2-4 more minutes. The stimulus buffer comprised CFAB, except that the sodium gluconate component was replaced with sodium iodide. Note that the addition of the iodide causes quenching of the fluorescent signal. In the majority of the experiments, the final concentration of sodium iodide in the stimulus buffer was about 5 mM.
The fluorescence response was corrected for the background fluorescence, as well as for the fluorescence changes, caused by iodide only. […] The initial analysis and data export was done using FLIPR-384 software (Version 1.25).
Microsoft Excel® was used to plot concentration-response curves and determine an EC50 value. […]

Assay [2] concerns neuronal-like cell line NT-2 N. Particulars: read-out: EC50 for diazepam; cited from earlier work.
The test system of assay [3] is hippocampal granule cells. Conditions: read-out: EC50 for diazepam; cited from earlier work.
Assay [4] has as its target α1-containing isoforms of the GABA(A) receptor. Conditions: read-out: EC50 for diazepam, published electrophysiological recordings; α1-containing isoforms in various expression systems; cited from earlier work.

Like-named read-outs stand apart in the source and are kept apart here.

T1 sequence (P62813 28-455): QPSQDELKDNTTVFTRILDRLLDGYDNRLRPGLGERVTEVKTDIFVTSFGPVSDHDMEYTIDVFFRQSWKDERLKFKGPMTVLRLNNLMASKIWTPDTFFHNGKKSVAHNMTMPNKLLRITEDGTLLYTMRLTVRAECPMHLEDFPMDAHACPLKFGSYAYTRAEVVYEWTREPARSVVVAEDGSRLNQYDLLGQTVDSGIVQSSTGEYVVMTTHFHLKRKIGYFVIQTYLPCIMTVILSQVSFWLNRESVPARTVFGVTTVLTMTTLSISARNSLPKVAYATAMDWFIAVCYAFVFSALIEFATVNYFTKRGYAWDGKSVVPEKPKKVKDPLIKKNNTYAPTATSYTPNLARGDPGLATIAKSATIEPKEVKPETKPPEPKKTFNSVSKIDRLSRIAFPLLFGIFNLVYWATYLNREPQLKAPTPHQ
T1 sequence (P63138 25-474 limits assumed): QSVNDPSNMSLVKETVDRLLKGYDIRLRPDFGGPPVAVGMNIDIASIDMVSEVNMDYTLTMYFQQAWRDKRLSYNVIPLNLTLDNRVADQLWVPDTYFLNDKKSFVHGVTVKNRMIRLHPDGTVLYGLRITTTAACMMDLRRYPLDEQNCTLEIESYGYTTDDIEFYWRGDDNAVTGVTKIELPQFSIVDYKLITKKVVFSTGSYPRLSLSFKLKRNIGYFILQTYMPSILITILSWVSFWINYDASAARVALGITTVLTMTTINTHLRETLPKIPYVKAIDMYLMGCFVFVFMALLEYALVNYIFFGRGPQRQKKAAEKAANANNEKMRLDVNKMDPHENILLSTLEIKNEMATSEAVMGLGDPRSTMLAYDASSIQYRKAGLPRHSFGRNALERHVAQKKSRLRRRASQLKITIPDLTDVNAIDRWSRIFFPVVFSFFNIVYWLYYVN
T1 sequence (P18508 39-466): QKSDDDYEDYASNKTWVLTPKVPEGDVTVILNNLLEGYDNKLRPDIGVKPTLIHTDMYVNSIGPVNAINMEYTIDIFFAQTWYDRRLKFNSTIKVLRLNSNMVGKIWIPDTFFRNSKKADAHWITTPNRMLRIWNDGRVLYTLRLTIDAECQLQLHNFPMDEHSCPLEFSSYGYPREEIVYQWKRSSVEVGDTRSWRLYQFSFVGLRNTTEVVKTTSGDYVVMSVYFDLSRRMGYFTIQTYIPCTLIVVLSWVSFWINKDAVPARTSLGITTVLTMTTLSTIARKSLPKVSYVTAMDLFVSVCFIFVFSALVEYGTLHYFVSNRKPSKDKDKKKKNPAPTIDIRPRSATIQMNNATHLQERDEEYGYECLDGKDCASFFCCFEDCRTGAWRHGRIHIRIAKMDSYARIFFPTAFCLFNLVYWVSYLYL

Consider `CC(=O)[C@H]1CC[C@H]2[C@@H]3CC[C@H]4C[C@H](O)CC[C@]4(C)[C@H]3CC[C@]12C` [allopregnanolone], for which the “Effect on GABA-induced fluorescent signal” value in assay [1] (against constant GABA 0.25 μM) was “concentration-dependent increase”.
In the case of `CN1CCc2cc3c(cc2[C@H]1[C@@H]1OC(=O)c2c1ccc1c2OCO1)OCO3` [bicuculline], in assay [1], the concentration for half-maximal inhibition (IC50) came to 4700 ± 900 nM.
With `CN1C(=O)CN=C(c2ccccc2)c2cc(Cl)ccc21` [diazepam], the EC50 is 74 nM in assay [2], 122 nM in assay [3] and 53 to 70 nM in assay [4]. Further, in assay [1], the “Effect on GABA-induced fluorescent signal” value is listed as “concentration-dependent increase”.
